Results taken from US11260084B2 (priority 2017, dated 2022).

Key:
[1] = system: Eimeria acervulina, Eimeria maxima and Eimeria tenella; test: Example 8 broiler study under severe coccidiosis challenge conditions; type: in vivo, Ross 708 broiler chicks; settings: 28-day mortality; compared to the challenged control
Description: EXAMPLE 8 of the present disclosure describes a study to evaluate the efficacy of a combination of xylanase (10 U/g feed), B. licheniformis strain PWD-1 (1×10^5 CFU/g feed), and B. amyloliquefaciens strain Ba-BPD1 (5×10^5 CFU/g feed) referred to as “Xyl+B+Y”, to minimize the severity of gut lesions and improve overall livability of broiler chickens fed standard corn-soy diets and reared under severe coccidiosis challenge conditions. In the study chicks were twice challenged with a live vaccine containing the live oocysts of highly-immunogenic, coccidiostat-sensitive strains of Eimeria acervulina, Eimeria maxima and Eimeria tenella by oral gavage and the Xyl+B+Y combination was compared to salinomycin sodium which is referred to as “Coccidiostat” in FIG. 13. […]
MATERIALS AND METHODS: Four hundred male Ross 708 broiler chicks were randomly assigned to 1 of 4 dietary treatments, with 7 replicate battery cages per treatment (except Treatment 1, the unchallenged positive control, which contained 4 replicate cages), and 16 birds per cage. […] The key parameters evaluated were upper-tract intestinal lesion scores, middle-tract intestinal lesion scores, mortality/livability, and feed conversion ratio (FCR).

[2] = system: Clostridium perfringens, Eimeria acervulina, and Eimeria maxima, and Eimeria tenella; type: in vivo, Ross 708 broilers; settings: at 21-days and 42-days of age; versus control

Row | Compound | reduction of mortality [1] [%] | effect on mortality [2]
1 | CC[C@@H](C(=O)[C@@H](C)[C@@H](O)[C@H](C)[C@@H]1O[C@@H]([C@@H](CC)C(=O)O)CC[C@@H]1C)[C@H]1O[C@]2(C=C[C@@H](O)[C@]3(CC[C@@](C)([C@H]4CC[C@](O)(CC)[C@H](C)O4)O3)O2)[C@H](C)C[C@@H]1C [Coccidiostat, salinomycin sodium] | 25 | –
2 | bacitracin methylene disalicylate [AGP] | – | did not significantly improve
